Measured values from ChEMBL document CHEMBL1201862, “PubChem BioAssay data set” (2004).
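Results reflect a 48-hour exposure of cells in 96-well plates to compound at five concentrations. GI50 marks 50% less growth.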 The source made the active and inactive calls. Rule as the data show it: active = GI50 up to about 1.1 µM and inactive = higher.

Columns and labels:
Assay in all cases: NCI tumour cell line growth inhibition, 48 h
K562 = system: K562
EKVX = system: EKVX
SF-539 = system: SF-539
TK-10 = system: TK-10
NCI-H522 = system: NCI-H522
LOX IMVI = system: LOX IMVI
Hs-578T = system: Hs-578T
NCI-H23 = system: NCI-H23
HOP-62 = system: HOP-62
IGROV-1 = system: IGROV-1
SK-MEL-28 = system: SK-MEL-28
OVCAR-4 = system: OVCAR-4
KM12 = system: KM12
UACC-257 = system: UACC-257
RPMI-8226 = system: RPMI-8226
COLO 205 = system: COLO 205
SNB-19 = system: SNB-19
SR = system: SR
UACC-62 = system: UACC-62
SW-620 = system: SW-620
MDA-MB-231 = system: MDA-MB-231
NCI/ADR-RES = system: NCI/ADR-RES
M14 = system: M14
MDA-N = system: MDA-N
OVCAR-3 = system: OVCAR-3
HOP-92 = system: HOP-92
UO-31 = system: UO-31
OVCAR-5 = system: OVCAR-5
MDA-MB-435 = system: MDA-MB-435
SK-MEL-5 = system: SK-MEL-5
MOLT-4 = system: MOLT-4
HCC 2998 = system: HCC 2998
CCRF-CEM = system: CCRF-CEM
786-0 = system: 786-0
CAKI-1 = system: CAKI-1
HCT-15 = system: HCT-15
HT-29 = system: HT-29
ACHN = system: ACHN
SN12C = system: SN12C
SK-OV-3 = system: SK-OV-3
DU-145 = system: DU-145
Malme-3M = system: Malme-3M
NCI-H460 = system: NCI-H460
NCI-H226 = system: NCI-H226
T47D = system: T47D
A498 = system: A498
PC-3 = system: PC-3
SF-268 = system: SF-268
MCF7 = system: MCF7
BT-549 = system: BT-549
SK-MEL-2 = system: SK-MEL-2
HL-60 = system: HL-60
HCT-116 = system: HCT-116
SF-295 = system: SF-295
OVCAR-8 = system: OVCAR-8
A549 = system: A549
SNB-75 = system: SNB-75
U-251 = system: U-251
RXF 393 = system: RXF 393

With `CC(=O)Nn1c(Cc2ccc(Cl)cc2)nn(C)c1=O` the GI50 (K562) was > 100 µM (inactive), the GI50 (EKVX) was > 100 µM (inactive) and the GI50 (SF-539) was > 100 µM (inactive). For the same compound, the GI50 (TK-10) was > 100 µM (inactive), the GI50 (NCI-H522) was > 100 µM (inactive) and the GI50 (LOX IMVI) was > 100 µM (inactive). The GI50 (Hs-578T) was > 100 µM (inactive), the GI50 (NCI-H23) was > 100 µM (inactive) and the GI50 (HOP-62) was > 100 µM (inactive). The GI50 (IGROV-1) was > 100 µM (inactive), the GI50 (SK-MEL-28) was > 100 µM (inactive) and the GI50 (OVCAR-4) was > 100 µM (inactive). For the same compound, the GI50 (KM12) was > 100 µM (inactive), the GI50 (UACC-257) was > 100 µM (inactive) and the GI50 (RPMI-8226) was > 100 µM (inactive). For the same compound, the GI50 (COLO 205) was > 100 µM (inactive), the GI50 (SNB-19) was > 100 µM (inactive) and the GI50 (SR) was > 100 µM (inactive). For the same compound, the GI50 (UACC-62) was > 100 µM (inactive), the GI50 (SW-620) was > 100 µM (inactive) and the GI50 (MDA-MB-231) was > 100 µM (inactive). For the same compound, the GI50 (NCI/ADR-RES) was > 100 µM (inactive), the GI50 (M14) was > 100 µM (inactive) and the GI50 (MDA-N) was > 100 µM (inactive). The GI50 (OVCAR-3) was > 100 µM (inactive), the GI50 (HOP-92) was > 100 µM (inactive) and the GI50 (UO-31) was > 100 µM (inactive). For the same compound, the GI50 (OVCAR-5) was > 100 µM (inactive), the GI50 (MDA-MB-435) was > 100 µM (inactive) and the GI50 (SK-MEL-5) was > 100 µM (inactive). The GI50 (MOLT-4) was > 100 µM (inactive), the GI50 (HCC 2998) was > 100 µM (inactive) and the GI50 (CCRF-CEM) was > 100 µM (inactive). The GI50 (786-0) was > 100 µM (inactive), the GI50 (CAKI-1) was > 100 µM (inactive) and the GI50 (HCT-15) was > 100 µM. For the same compound, the GI50 (HT-29) was > 100 µM (inactive), the GI50 (ACHN) was > 100 µM (inactive) and the GI50 (SN12C) was > 100 µM (inactive). For the same compound, the GI50 (SK-OV-3) was > 100 µM (inactive), the GI50 (DU-145) was > 100 µM (inactive) and the GI50 (Malme-3M) was > 100 µM (inactive). For the same compound, the GI50 (NCI-H460) was > 100 µM (inactive), the GI50 (NCI-H226) was > 100 µM (inactive) and the GI50 (T47D) was > 100 µM (inactive). The GI50 (A498) was > 100 µM (inactive), the GI50 (PC-3) was > 100 µM (inactive) and the GI50 (SF-268) was > 100 µM (inactive). The GI50 (MCF7) was > 100 µM (inactive), the GI50 (BT-549) was > 100 µM (inactive) and the GI50 (SK-MEL-2) was > 100 µM (inactive). The GI50 (HL-60) was > 100 µM (inactive), the GI50 (HCT-116) was > 100 µM (inactive) and the GI50 (SF-295) was > 100 µM (inactive). The GI50 (OVCAR-8) was > 100 µM (inactive), the GI50 (A549) was > 100 µM (inactive) and the GI50 (SNB-75) was > 100 µM (inactive). For the same compound, the GI50 (U-251) was > 100 µM (inactive).
`COC(=O)C(Cc1c[nH]c2ccccc12)NP(=O)(O)OCC1OC(n2ccc(N)nc2=O)C(O)C1O` (stereo not given) was tested, and the GI50 (K562) was > 100 µM (inactive), the GI50 (EKVX) was > 100 µM (inactive) and the GI50 (SF-539) was > 100 µM (inactive). The GI50 (TK-10) was > 100 µM (inactive), the GI50 (NCI-H522) was > 100 µM (inactive) and the GI50 (LOX IMVI) was > 100 µM (inactive). For the same compound, the GI50 (Hs-578T) was > 100 µM (inactive), the GI50 (NCI-H23) was > 100 µM (inactive) and the GI50 (HOP-62) was > 100 µM (inactive). The GI50 (IGROV-1) was > 100 µM (inactive), the GI50 (SK-MEL-28) was > 100 µM (inactive) and the GI50 (OVCAR-4) was > 100 µM (inactive). The GI50 (KM12) was > 100 µM (inactive), the GI50 (UACC-257) was > 100 µM (inactive) and the GI50 (RPMI-8226) was > 100 µM (inactive). For the same compound, the GI50 (COLO 205) was > 100 µM (inactive), the GI50 (SNB-19) was > 100 µM (inactive) and the GI50 (SR) was 82.2 µM (inactive). The GI50 (UACC-62) was 85.9 µM (inactive), the GI50 (SW-620) was > 100 µM (inactive) and the GI50 (MDA-MB-231) was > 100 µM (inactive). For the same compound, the GI50 (NCI/ADR-RES) was > 100 µM (inactive), the GI50 (M14) was > 100 µM (inactive) and the GI50 (MDA-N) was > 100 µM (inactive). The GI50 (OVCAR-3) was > 100 µM (inactive), the GI50 (HOP-92) was > 100 µM (inactive) and the GI50 (UO-31) was > 100 µM (inactive). For the same compound, the GI50 (OVCAR-5) was > 100 µM (inactive), the GI50 (MDA-MB-435) was > 100 µM (inactive) and the GI50 (SK-MEL-5) was > 100 µM (inactive). For the same compound, the GI50 (MOLT-4) was > 100 µM (inactive), the GI50 (CCRF-CEM) was 88.3 µM (inactive) and the GI50 (786-0) was > 100 µM (inactive). The GI50 (CAKI-1) was > 100 µM (inactive), the GI50 (HCT-15) was > 100 µM and the GI50 (HT-29) was > 100 µM (inactive). For the same compound, the GI50 (ACHN) was > 100 µM (inactive), the GI50 (SN12C) was > 100 µM (inactive) and the GI50 (DU-145) was > 100 µM (inactive). For the same compound, the GI50 (Malme-3M) was > 100 µM (inactive), the GI50 (NCI-H460) was > 100 µM (inactive) and the GI50 (NCI-H226) was > 100 µM (inactive). The GI50 (T47D) was > 100 µM (inactive), the GI50 (A498) was > 100 µM (inactive) and the GI50 (PC-3) was > 100 µM (inactive). The GI50 (SF-268) was > 100 µM (inactive), the GI50 (MCF7) was > 100 µM (inactive) and the GI50 (BT-549) was > 100 µM (inactive). The GI50 (HL-60) was > 100 µM (inactive), the GI50 (HCT-116) was > 100 µM (inactive) and the GI50 (SF-295) was > 100 µM (inactive). For the same compound, the GI50 (OVCAR-8) was > 100 µM (inactive), the GI50 (A549) was > 100 µM (inactive) and the GI50 (SNB-75) was > 100 µM (inactive). The GI50 (U-251) was > 100 µM (inactive).
For `O=C(N1CCOCC1)C1(c2ccccc2)CCNCC1`, the GI50 (K562) was > 100 µM (inactive), the GI50 (EKVX) was > 100 µM (inactive) and the GI50 (SF-539) was > 100 µM (inactive). For the same compound, the GI50 (TK-10) was > 100 µM (inactive), the GI50 (NCI-H522) was > 100 µM (inactive) and the GI50 (LOX IMVI) was > 100 µM (inactive). The GI50 (Hs-578T) was > 100 µM (inactive), the GI50 (NCI-H23) was > 100 µM (inactive) and the GI50 (HOP-62) was > 100 µM (inactive). For the same compound, the GI50 (IGROV-1) was > 100 µM (inactive), the GI50 (SK-MEL-28) was > 100 µM (inactive) and the GI50 (OVCAR-4) was > 100 µM (inactive). For the same compound, the GI50 (KM12) was > 100 µM (inactive), the GI50 (UACC-257) was > 100 µM (inactive) and the GI50 (RPMI-8226) was > 100 µM (inactive). For the same compound, the GI50 (COLO 205) was > 100 µM (inactive), the GI50 (SNB-19) was > 100 µM (inactive) and the GI50 (SR) was > 100 µM (inactive). The GI50 (UACC-62) was > 100 µM (inactive), the GI50 (SW-620) was > 100 µM (inactive) and the GI50 (MDA-MB-231) was > 100 µM (inactive). The GI50 (NCI/ADR-RES) was > 100 µM (inactive), the GI50 (RXF 393) was > 100 µM (inactive) and the GI50 (M14) was > 100 µM (inactive). The GI50 (MDA-N) was > 100 µM (inactive), the GI50 (OVCAR-3) was > 100 µM (inactive) and the GI50 (HOP-92) was > 100 µM (inactive). The GI50 (UO-31) was > 100 µM (inactive), the GI50 (OVCAR-5) was > 100 µM (inactive) and the GI50 (MDA-MB-435) was > 100 µM (inactive). The GI50 (SK-MEL-5) was > 100 µM (inactive), the GI50 (MOLT-4) was > 100 µM (inactive) and the GI50 (CCRF-CEM) was 0.0488 µM (active). The GI50 (786-0) was > 100 µM (inactive), the GI50 (CAKI-1) was > 100 µM (inactive) and the GI50 (HCT-15) was > 100 µM. The GI50 (HT-29) was > 100 µM (inactive), the GI50 (ACHN) was > 100 µM (inactive) and the GI50 (SN12C) was > 100 µM (inactive). The GI50 (SK-OV-3) was > 100 µM (inactive), the GI50 (DU-145) was > 100 µM (inactive) and the GI50 (Malme-3M) was > 100 µM (inactive). The GI50 (NCI-H460) was > 100 µM (inactive), the GI50 (NCI-H226) was > 100 µM (inactive) and the GI50 (T47D) was > 100 µM (inactive). The GI50 (A498) was > 100 µM (inactive), the GI50 (PC-3) was > 100 µM (inactive) and the GI50 (SF-268) was > 100 µM (inactive). For the same compound, the GI50 (MCF7) was > 100 µM (inactive), the GI50 (BT-549) was > 100 µM (inactive) and the GI50 (SK-MEL-2) was > 100 µM (inactive). The GI50 (HCT-116) was > 100 µM (inactive), the GI50 (SF-295) was > 100 µM (inactive) and the GI50 (OVCAR-8) was > 100 µM (inactive). The GI50 (A549) was > 100 µM (inactive), the GI50 (SNB-75) was > 100 µM (inactive) and the GI50 (U-251) was > 100 µM (inactive).
